Measured values reported in patent US20240368123A1, “AROMATIC RING-CONTAINING BIOLOGICAL ANTAGONIST, AND PREPARATION METHOD THEREFOR AND USE THEREOF” (SHANGHAI HANSOH BIOMEDICAL CO., LTD., priority 2021, published 2024).

Tests used:
[1] = biological target: T1, ETA receptors (Homo sapiens, UniProt P25101); experiment: Effect on calcium current in cells stably expressing ETA receptors (FLIPR, antagonist mode); assay type: cell-based; conditions: HEK293-ETA cells, Fluo-8 AM, FLIPR Tetra; read-out: IC50 values of compounds on calcium current in cells stably expressing ETA receptors
T1 construct: host or cells: HEK293
T1 sequence (P25101 21-427): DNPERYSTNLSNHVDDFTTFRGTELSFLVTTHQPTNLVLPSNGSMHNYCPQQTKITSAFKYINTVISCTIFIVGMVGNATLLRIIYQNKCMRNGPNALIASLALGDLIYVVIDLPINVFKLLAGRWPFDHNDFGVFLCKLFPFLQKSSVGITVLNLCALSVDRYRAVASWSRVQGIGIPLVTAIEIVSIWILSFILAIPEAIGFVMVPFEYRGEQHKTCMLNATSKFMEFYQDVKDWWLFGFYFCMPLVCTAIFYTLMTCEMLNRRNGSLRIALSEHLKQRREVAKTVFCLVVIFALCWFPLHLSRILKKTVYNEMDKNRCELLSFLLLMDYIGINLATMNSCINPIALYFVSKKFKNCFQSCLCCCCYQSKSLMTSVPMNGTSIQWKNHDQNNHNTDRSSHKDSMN
Excerpt: Test Example 2. Determination of the Effect of the Compounds of the Present Invention on Calcium Current in Cells Stably Expressing ETA Receptors
• Antagonistic effect of test compounds on HEK293-ETA cell activity.
• DMEM, high glucose (Gibco: 12100); • Fetal bovine serum (Biosera: FB-1058/500); • P/S (Biosera: XC-A4122); • 5× Matrigel (Corning: 354230); • HBSS (Sigma: H1387); • HEPES (Invitrogen: 15630080); • Fluo-8 AM (AAT Bioquest: 21080); • Probenecid (Sigma: P8761); • Pluronic F-127 (Sigma: P2443-250G); • Endothelin 1 (MCE: HY—P0202); • Zibotentan (MCE: HY-10088); • 1000× Fluo-8 AM (2 mM): Fluo-8 AM was dissolved in DMSO, the mixture was shaken for 1-2 min, sub-packaged and stored at −20° C.; • Complete culture medium: DMEM+10% FBS+1×P/S; • Cell seeding medium: DMEM+10% FBS+1×PS; • Experimental buffer 1: 1×HBSS+20 mM HEPES+1 mM Probenecid+0.025% Pluronic F-127; • Experimental buffer 2: 1×HBSS+20 mM HEPES+0.075% Pluronic F-127; • 1× Matrigel: 5× Matrigel was diluted with DMEM; • Cell line: HDB HEK293-ETA.
• 1) HEK293-ETA cell line was cultured in complete culture medium at 37° C., 5% CO2 to 70%-90% confluence. • 2) the 384-well cell plate was coated with 1× Matrigel with 5 μL/well at room temperature for 10 to 30 min. • 3) the cells were digested and resuspended in cell seeding medium, inoculation was performed at 8,000 cells/well/20 μL in a 384-well cell culture plate, and the cells were cultured at 37° C., 5% CO2 for 24 h. • 4) the cell culture plate was taken out of the CO2 incubator and equilibrated at room temperature for 10 min. • 5) 1000× Fluo-8 AM was taken and diluted to 1× Fluo-8 AM with experimental buffer 1 that has been equilibrated to room temperature, with a concentration of 2 μM. • 6) the culture medium was removed from the cell culture plate, 20 μL of 1× Fluo-8 AM was added to each well, the mixture was centrifuged at 300 rpm for 60 seconds at room temperature, and incubated at room temperature in the dark for 1 h. • 7) positive control compound and test compound working solution (3×) were formulated: • (1) instrument Bravo was used to dilute the compound to 11 concentration points on the 384-well Echo compound plate (LABCYTE: LP-0200); • (2) instrument ECHO was used to transfer 90 nL of compound per well (compound storage concentration, such as the highest concentration point 10 mM) to the 384-well compound plate (PE: 6008590); • (3) Multidrop Combi was used to add 30 μL of experimental buffer 2 to the 384-well compound plate (PE: 6008590), the positive control compound and test compound were diluted to 30 μM (3×), and placed at room temperature until use. • 8) FLIPR Tetra was used to add 10 μL of diluted 3× compound into the experimental well of the corresponding 384-well cell plate, the compound and cells were incubated for 10 min at room temperature, then 10 μL of diluted 4× agonist was added, and the data was read and collected at the same time.
FLIPR Tetra was used to read and collect the fluorescence signal value (RFU). The maximum RFU value was used to calculate the percent activation data based on the readings of the Low control (DMSO control) and High control (100 nM positive compound) experimental groups {% activation rate=(RFUsample−RFUlow control)/(RFUhigh control−RFUlow control)×100}. The concentration of the test compound was 11 concentrations after diluting the reaction system 3 times, ranging from 10 μM to 0.17 nM.

[2] = Liver microsomal metabolism stability test, rat; assay type: in vitro ADME; conditions: for half-life at 1 μM: rat liver microsomes 0.5 mg/mL, compound 1 μM, NADPH/UDPGA; for Remaining rate: rat liver microsomes, 60 min
Procedure: (§1) The purpose of this experiment was to detect the stability of the example compounds in liver microsomes of rats, dogs and humans.
(§2) • Formulation of working solution of compounds: compound stock solution was added to phosphate buffer to a final concentration of 20 μM.
(§3) Dilution was performed with 100 mM phosphate buffer to a final concentration of 0.625 mg/mL.
(§4) NADPH (reduced nicotinamide adenine dinucleotide phosphate) and UDPGA (uridine diphosphate glucuronic acid) were weighed, 100 mM phosphate buffer was added, and the final concentration was 20 mM.
(§5) 1 mg of Alamethicin was weighed, and 200 μL of DMSO was added to formulate a 5 mg/mL solution. Then dilution was performed with phosphate buffer to a final concentration of 50 μg/mL.
(§6) Stop solution: the stop solution contains 100 ng/mL labetalol hydrochloride and 400 ng/mL tolbutamide and cold acetonitrile as internal standard.
(§7) 400 μL of formulated liver microsomes, 25 μL of compound working solution and 25 μL of Alamethicin were added in sequence to the 96-well plate, and pre-incubated at 37° C. for 10 min. Then 50 μL of formulated NADPH/UDPGA was added to start the reaction and the mixture was incubated at 37° C. The total volume of the reaction system was 500 μL. The final contents of each component are as follows:
(§8) • Instrument: Shimadzu LC-30 AD; • Chromatographic column: XBridge® C18 (50*4.6 mm, 5 μm particle size); • Mobile phase: A: 0.1% formic acid solution, B: methanol Wash gradient: 0.2-1.6 min 5% A to 95% A, 3.0-3.1 min 95% A to 5% A Run time: 4.0 min.
(§9) • Instrument: API5500 liquid chromatography mass spectrometer, AB Sciex; • Ion source: electrospray ionization source (ESI); • Drying gas: N2, temperature 500° C.; • Electrospray voltage: 5000 V; • Detection mode: positive ion detection; • Scanning mode: reaction monitoring (MRM) mode.

[3] = Liver microsomal metabolism stability test, dog; assay type: in vitro ADME; conditions: for half-life at 1 μM: dog liver microsomes 0.5 mg/mL, compound 1 μM, NADPH/UDPGA; for Remaining rate: dog liver microsomes, 60 min
Procedure: as §1, §2, §3, §4, §5, §6, §7, §8, §9

Structure (SMILES) | IC50 [1] [nM] | half-life at 1 μM [2] [min] | Remaining rate [2] [%] | half-life at 1 μM [3] [min] | Remaining rate [3] [%]
CCCCC1=NC2(CC3CC3C2)C(=O)N1Cc1ccc(-c2ccccc2S(=O)(=O)Nc2noc(C)c2Cl)c(COCC)c1 (stereo not shown) [Example 65, 4′-((2′-butyl-5′-oxaspiro[bicyclo[3.1.0]hexane-3,4′-imidazole]-1′(5′H)-yl)methyl)-N-(4-chloro-5-methylisoxazol-3-yl)-2′-(ethoxymethyl)-[1,1′-biphenyl]-2-sulfonamide] | 7.2 | – | – | – | –
[2H]C([2H])(OCC)c1cc(CN2C(=O)C3(CCCC3)N=C2CCCC)ccc1-c1ccccc1S(=O)(=O)Nc1noc(C)c1Cl [Example 49, 4′-((2-butyl-4-oxo-1,3-diazospiro[4.4]non-1-en-3-yl)methyl)-N-(4-chloro-5-methylisoxazol-3-yl)-2′-(ethoxydeuteriummethyl)-[1,1′-biphenyl]-2-sulfonamide] | 12.9 | 24 | 17.1 | 29.5 | 23.9
CCCCC1=NC2(CCCC2)C(=O)N1Cc1ccc(-c2ccccc2S(=O)(=O)Nc2noc(C)c2Br)c(COCC)c1 [Example 46, 2-[4-[(2-butyl-4-oxo-1,3-diazaspiro[4.4]non-1-en-3-yl)methyl]-2-(ethoxymethyl)phenyl]-N-(4-bromo-5-methyl-isoxazol-3-yl)benzsulfamide] | – | 24.3 | 17.3 | 22.2 | 15.4
CCCCC1=NC2(CC3CC3C2)C(=O)N1Cc1ccc(-c2ccccc2S(=O)(=O)Nc2noc(C)c2C)c(COCC)c1 (stereo not shown) [Example 87, 4′-((2′-butyl-5′-oxaspiro[bicyclo[3.1.0]hexane-3,4′-imidazole]-1′(5′H)-yl)methyl)-N-(4,5-dimethylisoxazol-3-yl)-2′-(ethoxymethyl)-[1,1′-biphenyl]-2-sulfonamide] | 8.2 | – | – | – | –

More lines, main results first:

IC50 [1] [nM] | Structure (SMILES) | half-life at 1 μM [2] [min] | Remaining rate [2] [%] | half-life at 1 μM [3] [min] | Remaining rate [3] [%]
13.9 | CCCCC1=NC2(CCCC2)C(=O)N1Cc1ccc(-c2ccccc2S(=O)(=O)Nc2noc(C)c2Cl)c(COCC(F)(F)F)c1 [Example 86] | – | – | – | –
18.7 | CCCCC1=NC2(CCCCC2)C(=O)N1Cc1ccc(-c2ccccc2S(=O)(=O)Nc2noc(C)c2Cl)c(COCC)c1 [Example 68, 4′-((2-2-4-4-oxo-1,3-diazaspiro[4.5]dec-1-en-3-yl)methyl)-N-(4-chloro-5-methylisoxazol-3-yl)-2′-(ethoxymethyl)-[1,1′-biphenyl]-2-sulfonamide] | – | – | – | –
